From patent publication US8969352B2, “Substituted 2-azabicycles and their use as orexin receptor modulators” (Janssen Pharmaceutica NV, priority 2013, dated 2015) come the findings set out here.

One test has as its target human orexin 1 receptor (Homo sapiens, UniProt O43613). The test is described as follows: Human orexin 1 receptor radioligand binding. Conditions: CHO cells stably expressing human orexin 1 receptor; competitive radioligand binding, apparent Ki; read-out: hOX1 Ki. The protocol: (§1) Rat and Human Orexin 1 Receptor Radioligand Binding Studies
(§2) After centrifugation (2K×G, 5 min at 4° C.), the supernatant was aspirated and the pellets frozen and stored at −80° C. […] Each cell pellet from a 15 cm plate was resuspended in 10 mL, stored on ice, and homogenized for 45 sec prior to addition to the reactions. […] The final concentration of DMSO in the reactions is equal to or less than 0.1%. Total and nonspecific binding was determined in the absence and presence of 10 μM almorexant. The total volume of each reaction is 200 μL (20 μL of diluted compounds, 80 μL of [^3H]-(1-(5-(2-fluoro-phenyl)-2-methyl-thiazol-4-yl)-1-((S)-2-(5-phenyl-(1,3,4)oxadiazol-2-ylmethyl)-pyrrolidin-1-yl)-methanone) diluted in PBS and 100 μL of the cell suspension). […] The plates were washed 3 times by aspirating 30 ml PBS through the plates. Plates were dried in 55° C. oven for 60 min, scintillation fluid was added, and the radioactivity was counted on a Topcount (Packard).

The next test concerns the target human orexin 2 receptor (Homo sapiens (Human), UniProt O43614). The test is described as follows: Human orexin 2 receptor radioligand binding. Conditions: HEK293 stably expressing human orexin 2 receptor; [3H]-EMPA competitive binding, apparent Ki; read-out: hOX2 Ki. The protocol: Human Orexin 2 Receptor Radioligand Binding Studies
as §2, with “sec just” for “sec”, “reactions. Competition binding experiments in 96 well polypropylene plates were performed using [^3H]-EMPA (Moraveck Corporation, specific activity=29.6 Ci/mmol), diluted to a 5 nM concentration in PBS (2 nM final concentration).” for “reactions.”, “[^3H]-EMPA” for “[^3H]-(1-(5-(2-fluoro-phenyl)-2-methyl-thiazol-4-yl)-1-((S)-2-(5-phenyl-(1,3,4)oxadiazol-2-ylmethyl)-pyrrolidin-1-yl)-methanone)”

A further test has as its target rat orexin 1 receptor (Rattus norvegicus, UniProt P56718). The test is described as follows: Rat orexin 1 receptor radioligand binding. The conditions noted are these: HEK293 cells stably expressing rat orexin 1 receptor; competitive radioligand binding, apparent Ki; read-out: rOX1 Ki. The protocol: as §1, §2

human orexin 2 receptor, sequence (O43614 whole entry): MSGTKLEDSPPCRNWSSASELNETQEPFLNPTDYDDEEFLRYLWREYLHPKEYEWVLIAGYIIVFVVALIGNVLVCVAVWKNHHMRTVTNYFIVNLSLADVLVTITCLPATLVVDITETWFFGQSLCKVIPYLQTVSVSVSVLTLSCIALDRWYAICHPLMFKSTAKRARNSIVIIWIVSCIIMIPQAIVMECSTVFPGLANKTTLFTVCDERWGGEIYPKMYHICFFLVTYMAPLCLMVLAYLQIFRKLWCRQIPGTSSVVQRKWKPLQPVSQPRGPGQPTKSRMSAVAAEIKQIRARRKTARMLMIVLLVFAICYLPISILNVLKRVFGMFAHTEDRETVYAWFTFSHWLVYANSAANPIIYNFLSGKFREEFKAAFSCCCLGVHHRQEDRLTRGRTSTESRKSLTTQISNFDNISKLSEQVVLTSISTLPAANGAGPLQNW

Take `O=C(c1cc(F)ccc1-n1nccn1)N1C[C@H]2C[C@@H](Nc3ccc(C(F)(F)F)cn3)[C@@H]1C2` [Example 57, (5-fluoro-2-(2H-1,2,3-triazol-2-yl)phenyl)((1S,4S,6R)-6-((5-(trifluoromethyl)pyridin-2-yl)amino)-2-azabicyclo[2.2.1]heptan-2-yl)methanone]: the Ki came out at 5 nM at human orexin 1 receptor, 252 nM on human orexin 2 receptor and 6 nM at rat orexin 1 receptor.

Take `O=C(c1cc(F)ccc1-c1ncccn1)N1C[C@H]2C[C@@H](Nc3ccc(C(F)(F)F)cn3)[C@@H]1C2` [Example 58, (5-fluoro-2-(pyrimidin-2-yl)phenyl)((1S,4S,6R)-6-((5-(trifluoromethyl)pyridin-2-yl)amino)-2-azabicyclo[2.2.1]heptan-2-yl)methanone]: the Ki at human orexin 1 receptor was 2 nM; at human orexin 2 receptor, 181 nM; at rat orexin 1 receptor, 4 nM.

For `O=C(c1ccccc1-n1nccn1)N1C[C@H]2C[C@@H](Nc3cnc(C(F)(F)F)cn3)[C@@H]1C2` [Example 59, (2-(2H-1,2,3-triazol-2-yl)phenyl)((1S,4S,6R)-6-((5-(trifluoromethyl)pyrazin-2-yl)amino)-2-azabicyclo[2.2.1]heptan-2-yl)methanone], the Ki turned out to be 9 nM on human orexin 1 receptor, 213 nM at human orexin 2 receptor and 6 nM on rat orexin 1 receptor.
